Assay results reported in patent publication US5560907A, “Whitening embellisher” (Eisai Co., Ltd., priority 1992, dated 1996).

How the values were obtained:
[1] = system: B16 melanoma cells derived from a mouse; experiment: Restraint of melanin production in cultured B16 melanoma cells
[2] = system: tyrosinase, derived from mushroom; experiment: Inhibition of enzyme activity of mushroom tyrosinase; type: biochemical; details: concentration of 0.01-0.1%
[3] = system: tyrosinase in the B16 melanoma cells; experiment: Amount of tyrosinase in B16 melanoma cells by SDS-PAGE; type: cell-based, mouse; details: culture systems added with teprenone
Solubility in water = type: physicochemical
Text: The whitening and beautifying preparation suitable for use in a bath according to the present invention means a preparation which can be dissolved in hot water in a bathtub upon bathing to use it, and can be provided as tablets, granules, powder, liquid or the like. It can be formulated according to any process generally used.

[4] = Mus musculus, B16, read-out: production of melanin restrained, to control

`CC(=O)CCC=C(C)CCC=C(C)CCC=C(C)CCC=C(C)C` [teprenone, geranylgeranylacetone] showed an inhibition at 0.0001 % [1, 4] of 85%, an inhibition at 0.0002 % [1, 4] of 80% and an inhibition at 0.0003 % [1, 4] of 70%. For the same compound, the “reversibility of the melanin inhibiting action” value ([1]; cells cultured again in a system containing no teprenone, melanin greatly increased) was “reversible inhibiting action”, the cytotoxicity ([1]; sample concentrations 1×10^-4 to 3×10^-4 %) was “no cytotoxicity was recognized” and the “action to inhibit the enzyme activity of tyrosinase” value [2] was “did not exhibit any action to inhibit the enzyme activity”. The “amount of tyrosinase in the B16 melanoma cells” value [3] was “decreased in proportion to the concentration of teprenone added” and the solubility in water (Solubility in water) was “insoluble in water”.

With `OC[C@H]1O[C@@H](Oc2ccc(O)cc2)[C@H](O)[C@@H](O)[C@@H]1O` [arbutin] the “concentration essential for attaining the same effect of the combined use as kojic acid” value ([1]; arbutin combined with teprenone, equals 10-30 ppm) was 1×10^-3 -3×10^-3%.
